Where two headings read alike, the source gives them in different places.
Tests used:
[1] = in vitro comparative gelling experiment in 0.1N hydrochloric acid; type: physicochemical
[2] = system: Escherichia coli, A.T.T.C. accession number 8739; test: in-vitro antimicrobial activity, zone of inhibition on agar plates; type: cell-based; settings: agar plate well, incubated at 37° C. for 24 hours

In the case of O=C(O)c1ccccc1 [Example 10, Benzoic Acid], the gel formation [1] is reported as “did not gel”.

With Sucralfate [Example 1] the “supernatant left after gelling” value ([1]; 15ml of 0.1N hydrochloric acid) was “essentially clear” and the “gelled in (time to gel)” value ([1]; composition in 15ml of 0.1N hydrochloric acid, Vortex-Genie speed 3 for 10-15 seconds) was “about 10 seconds”.

For Sucralfate [Example 7], the gel formation ([1]; sample preparation for the antimicrobial test: 15ml of 0.1N hydrochloric acid in sterile test tube) was “gelled” and the “ZONE OF INHIBITION(CM)” value [2] was “Negative”.

With Cl [Example 12, 0.1N Hydrochloric Acid] the gel formation [1] was “gelled”.

— patent publication EP0403048A2, “Medicated compositions containing sucralfate and processes for their production” (WARNER-LAMBERT COMPANY, priority 1989, dated 1990)
